Consider eight compounds from patent publication US20100137312A1, “NOVEL AROMATIC HETEROCYCLIC CARBOXYLIC ACID AMIDE DERIVATIVES USEFUL AS POTASSIUM CHANNEL MODULATORS” (neuroSearch A/S, priority 2007, published 2010).

Series [1] deals with T1, BK channels heterologously expressed in Xenopus laevis oocytes (Homo sapiens, UniProt Q12791).
T1 construct: expressed in transfected cells; host or cells: Xenopus laevis oocytes
Put plainly: BK channel opening activity, two-electrode voltage clamp, left-shift of the BK activation curve. The format is cell-based. To be noted: 0.01-31.6 μM compound, sigmoidal logistic fit; for EC50: ΔV at control conductance level of +100 mV, read-out: EC50 for the left-shift of the BK activation curve (ΔV vs. concentration). On the procedure: In this example the BK channel opening activity of Compound 2 (FIGS. 1A and 1B), Compound 1 (FIGS. 2A and 2B) and Compound 9 (FIGS. 3A and 3B) is determined using BK channels heterologously expressed in Xenopus laevis oocytes.
The electrical current through the BK channel is measured using conventional two-electrode voltage clamp. BK currents are activated by repeating ramp protocols. In brief, the membrane potential is continuously changed from −120 mV to +120 mV within 2 s. The threshold for BK activation is approximately +30 mV under control conditions. Compounds are applies for 100 s during which the ramp protocol is repeated 10 times with 10 s intervals. In between the ramp protocols the membrane potential is clamped at −80 mV. The first three compound applications are control blanks where the current level is allowed to stabilize. In the subsequent 8 applications increasing concentrations (0.01-31.6 μM) of compound is applied and a marked increase in the current level at depolarizing potentials is observed.
In order to evaluate the ability of the compounds to shift the BK activation curve towards lower membrane potentials, the BK current was transformed into conductance by using Ohm's law g=I/(Ememb−Erev), where g is the conductance, I is the current, Ememb is the membrane potential and Erev is the reversal potential. The extracellular solution for these experiments contains 2.5 mM K^+and the intracellular K^+concentration of an oocyte is estimated to be 100 mM. Under those conditions, Nernst equation predicts a reversal potential of Erev=−93.2 mV. The control conductance level at a membrane potential of +100 mV was calculated, and the compound effect was evaluated as the potential difference, ΔV, to the membrane potential at which the same conductance level was obtained in the presence of compound.
The concentration response curve for this potential difference was fitted to the sigmoidal logistic equation: ΔV=ΔVmax/(1+(EC50/[compound])^n), where ΔVmax represents the maximal left shift of the BK activation curve, EC50 is the concentration causing a half maximal response, and n is the slope coefficient.
(In general: Two-electrode voltage clamp holds a large cell at a set potential and records current.)

T1 sequence (Q12791 whole entry): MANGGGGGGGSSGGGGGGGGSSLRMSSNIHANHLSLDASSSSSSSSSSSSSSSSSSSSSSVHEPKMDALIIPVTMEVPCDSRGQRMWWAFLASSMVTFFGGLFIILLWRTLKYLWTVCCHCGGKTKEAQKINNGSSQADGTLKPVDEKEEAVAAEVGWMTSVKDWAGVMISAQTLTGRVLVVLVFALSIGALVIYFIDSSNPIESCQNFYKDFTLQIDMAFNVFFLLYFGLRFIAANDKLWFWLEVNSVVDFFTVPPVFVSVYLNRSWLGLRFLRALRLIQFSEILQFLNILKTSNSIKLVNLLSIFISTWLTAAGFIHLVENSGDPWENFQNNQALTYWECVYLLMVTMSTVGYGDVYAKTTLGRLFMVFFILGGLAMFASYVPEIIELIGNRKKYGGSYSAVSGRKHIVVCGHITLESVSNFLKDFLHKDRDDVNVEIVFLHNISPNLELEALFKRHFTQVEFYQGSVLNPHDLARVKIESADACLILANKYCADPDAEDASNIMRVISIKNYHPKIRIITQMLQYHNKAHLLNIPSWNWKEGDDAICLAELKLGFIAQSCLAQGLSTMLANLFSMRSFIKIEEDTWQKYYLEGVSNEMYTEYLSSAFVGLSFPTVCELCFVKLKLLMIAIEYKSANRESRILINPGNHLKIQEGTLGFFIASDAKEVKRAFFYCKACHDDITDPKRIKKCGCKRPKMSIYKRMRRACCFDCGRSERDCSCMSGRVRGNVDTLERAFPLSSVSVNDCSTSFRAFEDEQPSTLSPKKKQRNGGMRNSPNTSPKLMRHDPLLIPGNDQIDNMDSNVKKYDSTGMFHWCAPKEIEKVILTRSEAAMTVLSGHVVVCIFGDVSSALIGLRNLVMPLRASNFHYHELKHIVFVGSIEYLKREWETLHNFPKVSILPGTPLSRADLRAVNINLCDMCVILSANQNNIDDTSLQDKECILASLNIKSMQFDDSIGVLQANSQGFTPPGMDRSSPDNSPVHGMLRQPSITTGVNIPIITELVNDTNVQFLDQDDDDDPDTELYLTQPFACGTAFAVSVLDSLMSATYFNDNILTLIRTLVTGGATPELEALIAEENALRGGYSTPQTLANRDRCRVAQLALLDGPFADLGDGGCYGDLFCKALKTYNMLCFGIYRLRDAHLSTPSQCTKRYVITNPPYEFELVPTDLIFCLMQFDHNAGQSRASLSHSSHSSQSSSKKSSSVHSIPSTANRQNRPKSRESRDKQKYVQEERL

By melting point is commonly meant the temperature, or range, at which the solid turns liquid. As for `O=C(O)c1cc(F)c(F)cc1NC(=O)c1cc(-c2ccc(Cl)cc2)oc1C(F)(F)F` [Compound 13, 2-{[5-(4-Chloro-phenyl)-2-trifluoromethyl-furan-3-carbonyl]-amino}-4,5-difluoro-benzoic acid], the melting point is 337.2 to 340.2 °C.
Consider `O=C(Nc1cc(Cl)ccc1-c1nnn[nH]1)c1cc(-c2ccc(Cl)cc2)oc1C(F)(F)F` [Compound 1, 5-(4-Chloro-phenyl)-2-trifluoromethyl-furan-3-carboxylic acid [5-chloro-2-(1H-tetrazol-5-yl)-phenyl]-amide], for which, in series [1], the “maximal left-shift of the BK activation curve (ΔVmax)” value (“maximal left-shift … (ΔVmax)” below) was −88 mV and the EC50 came out at 4400 nM.
Take `O=C(Nc1cc(Cl)ccc1OCc1nnn[nH]1)c1cc(-c2ccc(Cl)cc2)oc1C(F)(F)F` [Compound 7, 5-(4-Chloro-phenyl)-2-trifluoromethyl-furan-3-carboxylic acid [5-chloro-2-(1H-tetrazol-5-ylmethoxy)-phenyl]-amide]: the melting point is 226.9 to 236.1 °C.
For the compound `O=C(Nc1cc(Cl)ccc1-c1nnn[nH]1)c1cnn(-c2ccc(Cl)cc2)c1C(F)(F)F` [Compound 2, 1-(4-Chloro-phenyl)-5-trifluoromethyl-1H-pyrazole-4-carboxylic acid [5-chloro-2-(1H-tetrazol-5-yl)-phenyl]-amide], the melting point fell in the range of 176.3 to 180.4 °C. Further, in series [1], the “maximal left-shift … (ΔVmax)” value is given as −94 mV and the EC50 is 2400 nM.
In turn, `Cc1oc(-c2ccc(Cl)cc2)cc1C(=O)Nc1cc(Cl)ccc1-c1nnn[nH]1` [Compound 12, 5-(4-Chloro-phenyl)-2-methyl-furan-3-carboxylic acid [5-chloro-2-(1H-tetrazol-5-yl)-phenyl]-amide] displayed a melting point of 246.7 to 255.4 °C.
Turning to `Cc1nc(-c2ccc(C(F)(F)F)cc2)sc1C(=O)Nc1cc(Cl)ccc1-c1nnn[nH]1` [Compound 9, 4-Methyl-2-(4-trifluoromethyl-phenyl)-thiazole-5-carboxylic acid [5-chloro-2-(1H-tetrazol-5-yl)-phenyl]-amide], the melting point was 325 to 337.2 °C. Further, in series [1], the “maximal left-shift … (ΔVmax)” value was −99 mV and the EC50 amounted to 970 nM.
The compound `CS(=O)(=O)NC(=O)c1ccc(Cl)cc1NC(=O)c1cc(-c2ccc(Cl)cc2)oc1C(F)(F)F` [Compound 5, 5-(4-Chloro-phenyl)-2-trifluoromethyl-furan-3-carboxylic acid (5-chloro-2-methanesulfonylaminocarbonyl-phenyl)-amide] came in with a melting point of 259 to 262 °C.
Same read-out and setting: then `Cc1oc(-c2ccc(Cl)cc2)cc1C(=O)Nc1cc(Cl)ccc1-c1noc(=O)[nH]1` [Compound 20, 5-(4-Chloro-phenyl)-2-methyl-furan-3-carboxylic acid [5-chloro-2-(5-oxo-4,5-dihydro-[1,2,4]oxadiazol-3-yl)-phenyl]-amide], with 248.1 to 250.9 °C.
